Consider 2 compounds from ChEMBL document CHEMBL1130784, “Irreversible inhibition of zinc-containing protease by oxazolidinone derivatives. Novel inactivation chemistry” (Bioorg Med Chem Lett, 1998).

Experiment [1] addresses T1, Carboxypeptidase A1 (Homo sapiens) (UniProt P15085).
T1 sequence (whole entry): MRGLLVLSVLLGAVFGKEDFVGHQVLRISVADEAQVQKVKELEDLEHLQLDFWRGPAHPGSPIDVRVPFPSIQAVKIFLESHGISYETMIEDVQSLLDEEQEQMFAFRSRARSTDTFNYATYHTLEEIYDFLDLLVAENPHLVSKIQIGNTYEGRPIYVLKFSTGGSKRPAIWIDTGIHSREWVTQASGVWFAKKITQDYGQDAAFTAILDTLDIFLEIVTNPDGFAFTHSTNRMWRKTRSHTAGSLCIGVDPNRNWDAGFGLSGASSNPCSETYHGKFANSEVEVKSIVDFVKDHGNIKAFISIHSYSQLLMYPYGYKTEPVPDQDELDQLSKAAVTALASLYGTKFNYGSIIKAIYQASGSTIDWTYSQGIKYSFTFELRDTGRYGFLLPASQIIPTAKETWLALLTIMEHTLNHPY
Briefly: Inactivation potency of compound against carboxypeptidase A (CPA).

Experiment [2] in a line: Inhibitory activity of against carboxypeptidase A (CPA).
Experiment [3] can be described thus: Partition ratio (Kcat/Kinact) was calculated.
Experiment [4] in a line: Kinetic constant against carboxypeptidase A (CPA).

Turning to `O=C1N[C@H]([C@H](Cc2ccccc2)C(=O)O)CO1`, the K inact/Ki in experiment [1] is 1.39 M⁻¹ s⁻¹. Besides, in experiment [2], the Ki (in general, the dissociation constant of the complex between target and ligand, obtained from inhibition or displacement) is 900 µM. Besides, the Ratio in experiment [3] is 120. Besides, in experiment [4], the K inact is 0.075 min⁻¹.

`O=C1N[C@@H]([C@@H](Cc2ccccc2)C(=O)O)CO1` came in with a K inact/Ki in experiment [1] of 1.52 M⁻¹ s⁻¹. The compound further yielded a Ki in experiment [2] of 1650 µM. In experiment [3], the Ratio was 94. In experiment [4], the K inact was found to be 0.115 min⁻¹.
